Source: patent US20130102009A1, “SIRTUIN ACTIVATORS AND ACTIVATION ASSAYS” (priority 2010, published 2013)

Experiments:
[1] = target: T1, SIRT1 (Homo sapiens, UniProt Q96EB6); assay: Mass spectrometry based SIRT1 activation assay (TAMRA/5TMR-labeled 20mer peptide); format: biochemical; conditions: for Emax: 25 min, percent maximum fold activation of SIRT1, read-out: % FOLD ACT.; for EC1.5 uM: concentration that results in 150% activation of SIRT1
T1 sequence (Q96EB6 1-747): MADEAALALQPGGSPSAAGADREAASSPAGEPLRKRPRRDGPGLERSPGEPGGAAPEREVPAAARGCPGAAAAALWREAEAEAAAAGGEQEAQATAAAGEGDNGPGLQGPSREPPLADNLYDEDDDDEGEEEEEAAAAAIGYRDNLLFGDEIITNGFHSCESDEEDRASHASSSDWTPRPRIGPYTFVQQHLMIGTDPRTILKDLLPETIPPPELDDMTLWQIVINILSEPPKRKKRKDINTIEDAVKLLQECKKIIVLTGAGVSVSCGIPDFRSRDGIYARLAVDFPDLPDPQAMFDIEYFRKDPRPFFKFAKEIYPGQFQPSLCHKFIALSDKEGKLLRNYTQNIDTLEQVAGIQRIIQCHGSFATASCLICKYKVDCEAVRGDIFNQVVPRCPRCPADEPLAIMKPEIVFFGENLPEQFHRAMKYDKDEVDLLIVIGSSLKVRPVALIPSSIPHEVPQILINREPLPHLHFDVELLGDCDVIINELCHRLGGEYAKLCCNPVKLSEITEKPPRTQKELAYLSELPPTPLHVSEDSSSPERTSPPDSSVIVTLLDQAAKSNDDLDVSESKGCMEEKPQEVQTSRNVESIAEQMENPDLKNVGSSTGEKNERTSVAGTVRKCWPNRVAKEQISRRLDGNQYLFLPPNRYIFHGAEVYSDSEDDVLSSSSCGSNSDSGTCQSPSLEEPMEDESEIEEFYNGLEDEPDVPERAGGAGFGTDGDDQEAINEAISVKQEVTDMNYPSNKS
From the text: A mass spectrometry based assay was used to identify modulators of SIRTI activity. The mass spectrometry based assay utilizes a peptide having 20 amino acid residues as follows: Ac-EE-K(biotin)-GQSTSSHSK(Ac)NleSTEG-K(5TMR)-EE-NH2 (SEQ ID NO: 1) wherein K(Ac) is an acetylated lysine residue and Nle is a norleucine. The peptide is labeled with the fluorophore 5TMR (excitation 540 nrnIemission 580 nm) at the C-terminus. The sequence of the peptide substrate is based on p53 with several modifications. In addition, the methionine residue naturally present in the sequence was replaced with the norleucine because the methionine may be susceptible to oxidation during synthesis and purification.
The mass spectrometry assay is conducted as follows: 0.5 J-1M peptide substrate and 120 μM βNAD^+ is incubated with 10 nM SIRT1 for 25 minutes at 25° C. in a reaction buffer (50 mM Tris-acetate pH 8, 137 mM NaCl, 2.7 mM KCl, 1 mM MgClz, 5 mM DTT, 0.05% BSA). Test compounds may be added to the reaction as described above. The SirTI gene is cloned into a T7-promoter containing vector and transformed into BL21 (DE3). After the 25 minute incubation with SIRT1, 10 μL of 10% formic acid is added to stop the reaction. Reactions are sealed and frozen for later mass spec analysis. Determination of the mass of the substrate peptide allows for precise determination of the degree of acetylation (i.e. starting material) as compared to deacetylated peptide (product).
A control for inhibition of sirtuin activity is conducted by adding 1 μL of 500 mM nicotinamide as a negative control at the start of the reaction (e.g., permits determination of maximum sirtuin inhibition). A control for activation of sirtuin activity is conducted using 10 nM of sirtuin protein, with 1 μL of DMSO in place of compound, to determine the amount of deacetylation of the substrate at a given timepoint within the linear range of the assay. This timepoint is the same as that used for test compounds and, within the linear range, the endpoint represents a change in velocity.
For the above assay, SIRTI protein was expressed and purified as follows. The SirT1 gene was cloned into a T7-promoter containing vector and transformed into BL21(DE3). The protein was expressed by induction with 1 mM IPTG as an N-terminal His-tag fusion protein at 18° C. overnight and harvested at 30,000×g. Cells were lysed with lysozyme in lysis buffer (50 mM Tris-HCl, 2 mM Tris[2-carboxyethyl]phosphine (TCEP), 10 μM ZnCl2, 200 mM NaCl) and further treated with sonication for 10 min for complete lysis. The protein was purified over a Ni-NTA column (Amersham) and fractions containing pure protein were pooled, concentrated and run over a sizing column (Sephadex S200 26/60 global). The peak containing soluble protein was collected and run on an Ion-exchange column (MonoQ). Gradient elution (200 mM-500 mM NaCl) yielded pure 20 protein. This protein was concentrated and dialyzed against dialysis buffer (20 mM TrisHCl, 2 mM TCEP) overnight. The protein was aliquoted and frozen at −80° C. until further use.
Sirtuin modulating compounds that activated SIRT1 were identified using the assay described above and are shown below in Table 4. The EC1.5 values represent the concentration of test compounds that result in 150% activation of SIRT1. The EC1.5 values for the activating compounds are represented by A (EC1.5≦1 μM), B (EC1.5>1 μM). The percent maximum fold activation is represented by A (Fold activation ≧200%) or B (Fold Activation <200%).

[2] = target: TAMRA-peptide; assay: ITC binding of STACs to TAMRA-peptide; conditions: 26° C., pH 7.3, read-out: Kd for the binding of activator to TAMRA-peptide
Method: ITC experiments were performed using either a VP-ITC system or iTC200 system (MicroCal) at 26° C. in a buffer composed of 137 mM NaCl, 2.7 mM KCl, 1 mM MgCl2, 2 mM TCEP, 5% (v/v) glycerol and 50 mM HEPES-NaOH, pH 7.3. SIRT1(183-664) was purified and dialyzed against the buffer, centrifuged, and degassed before the experiment. The peptide and compounds were dissolved in the final dialysis buffer and their pH values were adjusted to match that of the protein solution. […] To characterize this interaction using the iTC200 system, 1 mM TAMRA-peptide was injected in 20 aliquots of 2 μL, (except the first injection, which was 0.5 μL) into a 0.202 mL sample cell containing 100 μM STAC. For STACs with poor solubility, the concentrations were adjusted accordingly. […] In all cases, data was corrected for the heat of dilution and fitted using a nonlinear least-squares routine using a single-site binding model with Origin for ITC v7.0383 (Microcal) with the stoichiometry (n), the enthalpy of the reaction (ΔH) and the association constant (Ka) calculated.

[3] = target: T1, SIRT1; assay: Mass spectroscopic kinetic assay of SIRT1-catalyzed deacetylation of 20mer peptides; format: biochemical; conditions: substrate TAMRA-peptide
Method: Bovine glutamate dehydrogenase (GDH), α-ketoglutarate, NADH and NAD^+ were from Sigma Chemical Company. […] The nicotinamidase PNC1 was prepared as described by Denu and colleagues (Smith et al. (2009) Anal Biochem 394, 101-109). Our collection of approximately 5,000 SIRT1 activators was screened using the BioTrove mass spectrometry system, as previously described (Milne et al. (2007) Nature 450, 712-716). […] Compounds were present at 10 μM, and the assays were conducted in a pH 7.4 buffer containing 150 mM Tris, 5 mM DTT, 1% DMSO, and 0.025% BSA. To determine the interaction of STACs with SIRT1 two kinetic methods were employed. […] (2007) Nature 450, 712-716). The other, used with peptides of general structure […], used a continuous, enzyme-coupled method reported previously (Smith et al. (2009) Anal Biochem 394, 101-109), in which the SRT1 product nicotinamide is first converted into nicotinic acid and ammonia by the action of PNC1, and the ammonia then used by GDH to convert α-ketoglutarate into glutamate. This reaction occurs with oxidation of NADH to NAD^+ which is accompanied by a change in absorbance at 340 nm (Δε340=-6,200 M^-1 cm^-1). Activator titrations were plotted as relative velocity (i.e., the ratio of vx, velocity in the presence of activator X, to vo, velocity in the absence of activator) vs. [X]o, initial concentration of activator, and fit by nonlinear least-squares to the mechanism-independent expression for enzyme activation of […] the maximum relative velocity (i.e., vx/vo at infinite [X]o) and EC50 is the activator concentration at which vx/vo=(RVmax-1)/2. EC50 is a function of the kinetic mechanisms of both catalysis and activation, and the concentrations of substrates.

[4] = target: T2, SIRT1(183-664) (Homo sapiens, UniProt Q96EB6); assay: ITC binding of STACs to SIRT1(183-664); conditions: dissociation constant of SRT:SIRT1 complex, read-out: Kx (μM), ITC
T2 construct: the truncated version used for biophysical studies SIRT1(183-664); made in house
T2 sequence (Q96EB6 183-664): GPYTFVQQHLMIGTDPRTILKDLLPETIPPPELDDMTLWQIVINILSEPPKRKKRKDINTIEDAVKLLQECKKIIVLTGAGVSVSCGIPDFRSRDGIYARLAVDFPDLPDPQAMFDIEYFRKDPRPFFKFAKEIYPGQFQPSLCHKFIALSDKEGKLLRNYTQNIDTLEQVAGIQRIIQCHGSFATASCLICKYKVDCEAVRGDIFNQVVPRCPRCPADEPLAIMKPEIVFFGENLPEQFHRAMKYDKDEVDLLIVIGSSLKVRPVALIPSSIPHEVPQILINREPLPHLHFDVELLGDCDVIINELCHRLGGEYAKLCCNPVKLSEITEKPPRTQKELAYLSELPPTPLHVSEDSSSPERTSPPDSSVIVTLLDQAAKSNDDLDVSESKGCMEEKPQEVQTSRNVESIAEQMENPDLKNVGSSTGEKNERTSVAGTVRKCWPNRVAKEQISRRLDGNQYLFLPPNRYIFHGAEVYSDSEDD
Method: All peptides were prepared by BioPeptide (San Diego, Calif.) and shown to be at least 95% pure by analytical HPLC analysis. Bovine glutamate dehydrogenase (GDH), α-ketoglutarate, NADH and NAD^+ were from Sigma Chemical Company. Full-length, human SIRT1 and the truncated version used for biophysical studies SIRT1(183-664) were prepared as described previously, and shown to have equivalent kinetic properties (Milne et al. (2007) Nature 450, 712-716). The nicotinamidase PNC1 was prepared as described by Denu and colleagues (Smith et al. (2009) Anal Biochem 394, 101-109). ITC experiments were performed using either a VP-ITC system or iTC200 system (MicroCal) at 26° C. in a buffer composed of 137 mM NaCl, 2.7 mM KCl, 1 mM MgCl2, 2 mM TCEP, 5% (v/v) glycerol and 50 mM HEPES-NaOH, pH 7.3. SIRT1(183-664) was purified and dialyzed against the buffer, centrifuged, and degassed before the experiment. The peptide and compounds were dissolved in the final dialysis buffer and their pH values were adjusted to match that of the protein solution. […] To characterize this interaction using the iTC200 system, 1 mM TAMRA-peptide was injected in 20 aliquots of 2 μL, (except the first injection, which was 0.5 μL) into a 0.202 mL sample cell containing 100 μM STAC. For STACs with poor solubility, the concentrations were adjusted accordingly. […] To characterize the interaction of a STAC with SIRT1(183-664) on the VP-ITC system, 100 μM enzyme was injected in 35 aliquots of 8 μL, (except the first injection, which was 2 μL) into a 1.47 mL sample cell containing 10 μM STAC. […] In all cases, data was corrected for the heat of dilution and fitted using a nonlinear least-squares routine using a single-site binding model with Origin for ITC v7.0383 (Microcal) with the stoichiometry (n), the enthalpy of the reaction (ΔH) and the association constant (Ka) calculated.

## O=C(Nc1ccccc1-c1nc2cc(CCC3CCNCC3)cnc2s1)c1cccc(C2CCNC2)c1 (centres unmarked) [Compound 7]
[1]
  Emax: ≥ 200%
  EC1.5 uM: A (EC1.5≦1 μM)
[2]
  Kd: 36000 nM
[3]; concentration for 1.5-fold activation
  EC1.5 for activation of SIRT1: 0.1 µM
[3]; fit to eq (1), read-out: EC50 (Kx) for activation of SIRT1-catalyzed deacetylation of TAMRA-peptide
  EC50: 500 nM

## CCCNc1cc(-c2nc3c(NC(=O)c4ccc(CN5CCNCC5)cc4)cccc3[nH]2)ccn1 [Compound 13]
[4]
  Kd: 0.32 µM
[1]
  Emax: ≥ 200%
  EC1.5 uM: A (EC1.5≦1 μM)
